Drawing on patent US12595248B2, “PRMT5 inhibitors” (Merck Sharp & Dohme LLC, priority 2019, dated 2026), this text covers EC50 for 22 compounds.

Read-outs that look alike come from different tables or passages of the source. Some results are limits rather than exact numbers.

Assay [1] deals with T1, PRMT5-MEP50 enzyme complex (Homo sapiens, UniProt O14744).
T1 construct: Full-length (FL)-PRMT5-MEP50 enzyme complex (recombinant proteins from baculovirus-transfected Sf21 cells: FL-PRMT5; MW=73837 kDa and FL-MEP50; MW=38614); made in house; host or cells: baculovirus-transfected Sf21 cells
Put plainly: PRMT5-MEP50 Enzyme Methylation Assay (Version A). The class given is biochemical. The method, then:
PRMT5-MEP50 Enzyme Methylation Assay (Version A)
PRMT5-MEP50 biochemical assay is a direct measurement of the methylation activity of the enzyme complex on a short peptide substrate derived from the N-terminus of H4 histone. Methylation experiment was performed with recombinant PRMT5-MEP50 protein complex. The assessment of inhibitory effect of small molecules was measured by the effectiveness of the compounds to inhibit this reaction (EC50).
In this assay, the potency (EC50) of each compound was determined from a twenty-point (1:2 serial dilution; top compound concentration of 100000 nM) titration curve using the following outlined procedure. To each well of a white ProxiPlus 384 well-plate, 100 nL of compound (1% DMSO in final assay volume of 10 μL) was dispensed, followed by the addition of 8 μL of 1× assay buffer (50 mM Bicine pH 8.0, 1 mM DTT, 0.004% Tween20, 0.01% BSA) containing 1.25 nM of Full-length (FL)-PRMT5-MEP50 enzyme complex (recombinant proteins from baculovirus-transfected Sf21 cells: FL-PRMT5; MW=[…] and FL-MEP50; MW=38614) and 1 μL of 150 μM S-(5′-Adenosyl)-L-Methionine Chloride (SAM). A plate was sealed and placed in a 37° C. humidified chamber for a 60 minutes pre-incubation with compound. Subsequently, each reaction was initiated by the addition of 1 μL 1× assay buffer containing 750 nM biotinylated H4R3 (MeI) peptide. The final reaction in each well of 10 μL consists of 1.0 nM PRMT5-MEP50, 75 nM biotinylated-peptide, and 15 μM SAM. Methylation reactions were allowed to proceed for 150 minutes in a sealed plate at 37° C. Reactions were immediately quenched by the addition of 1 μL of 5% formic acid. A plate was then frozen and shipped to SAMDI™ Tech Inc. to determine the percent conversion from H4R3 (MeI) to H4R3 (Me2). Dose-response curves were generated by plotting percent effect (% product conversion; Y-axis) vs. Log 10 compound concentrations (X-axis). EC50 values were determined by non-linear regression according to models for either sigmoidal (4 parameters) or biphasic (7 parameters) dose-response curves.

The target in the next assay is T2, PRMT5 (Homo sapiens, UniProt O14744).
T2 construct: seeded with 4000 MCF-7 cells in 30 μl media; endogenous in cells; host or cells: MCF-7 cells
Put plainly: PRMT5 Cell Target Engagement (TE) Assay. In kind it is cell-based. The conditions noted are these: MCF-7 cells, treated for 3 days, symmetric dimethylation of arginine (SDMA) by high content imaging. The procedure, abridged:
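Readout is single-cell nuclear symmetric-dimethylarginine immunofluorescence (Alexa488), normalized to DMSO-treated cells. Compounds were applied to MCF-7 cells for 3 days at 37 °C, top concentration 10000 nM in 1:3 steps over ten points; curves fitted with 4-parameter robust fit.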

[2] abbreviates: first of two EC50s: 7 parameters biphasic model, read-out: Enzyme Methylation Assay Version A (EC50_1).
Where [3] appears, read: second of two EC50s: 7 parameters biphasic model, read-out: Enzyme Methylation Assay Version A (EC50_2).
Where [4] appears, read: only one EC50 shown: 4 parameters single site sigmoidal model, 60 min pre-incubation with SAM, read-out: Enzyme Methylation Assay Version A (EC50).

T2 sequence (O14744 whole entry): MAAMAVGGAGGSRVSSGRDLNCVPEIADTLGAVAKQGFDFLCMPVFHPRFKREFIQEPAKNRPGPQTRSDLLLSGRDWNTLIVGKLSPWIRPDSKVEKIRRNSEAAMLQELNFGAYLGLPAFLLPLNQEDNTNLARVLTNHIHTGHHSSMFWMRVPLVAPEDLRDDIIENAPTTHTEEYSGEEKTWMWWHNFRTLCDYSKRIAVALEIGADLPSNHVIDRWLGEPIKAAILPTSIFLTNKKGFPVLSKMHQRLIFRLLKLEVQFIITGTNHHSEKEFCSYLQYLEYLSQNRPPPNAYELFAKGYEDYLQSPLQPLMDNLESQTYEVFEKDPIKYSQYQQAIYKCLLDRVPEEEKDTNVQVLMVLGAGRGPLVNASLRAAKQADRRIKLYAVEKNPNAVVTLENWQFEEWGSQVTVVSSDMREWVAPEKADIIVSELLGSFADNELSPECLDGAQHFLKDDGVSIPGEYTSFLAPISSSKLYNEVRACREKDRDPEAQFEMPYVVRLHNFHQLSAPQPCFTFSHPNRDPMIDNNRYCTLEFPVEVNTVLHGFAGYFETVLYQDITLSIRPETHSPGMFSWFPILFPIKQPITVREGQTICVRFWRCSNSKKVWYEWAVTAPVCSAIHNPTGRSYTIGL
T2 sequence (Q9BQA1 whole entry partner): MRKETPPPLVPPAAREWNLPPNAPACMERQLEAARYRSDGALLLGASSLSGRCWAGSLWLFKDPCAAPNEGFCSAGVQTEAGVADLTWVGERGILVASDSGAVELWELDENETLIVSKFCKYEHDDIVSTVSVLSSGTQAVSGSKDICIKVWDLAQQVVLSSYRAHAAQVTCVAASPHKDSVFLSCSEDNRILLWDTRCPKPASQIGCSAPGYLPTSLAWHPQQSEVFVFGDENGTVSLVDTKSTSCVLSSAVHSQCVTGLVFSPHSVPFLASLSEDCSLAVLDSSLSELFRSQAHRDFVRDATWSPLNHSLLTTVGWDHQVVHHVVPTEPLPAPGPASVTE
T1 sequence (O14744 whole entry): as the sequence (O14744 whole entry) above
T1 sequence (Q9BQA1 whole entry partner): as the sequence (Q9BQA1 whole entry partner) above

For `CC(=O)N1CCC(Nc2cc(C(=O)N3CC[C@H](N4CCc5ccccc5C4)[C@@H](O)C3)c(F)cn2)C1` (single isomer, unassigned) [Example 114], the EC50 turned out to be 3.3 nM in assay [1] (setting [2]), 3130 nM in assay [1] (setting [3]) and 28 nM at PRMT5.
`O=C(c1cc(NC2CCN3C(=O)CCC3C2)ncc1F)N1CC[C@H](N2CCc3ccccc3C2)[C@@H](O)C1` (single isomer, unassigned) [Example 115]: the EC50 in assay [1] (setting [4]) was 6.5 nM; on PRMT5, 140 nM.
Turning to `O=C(c1cc(NC2CCN3C(=O)CCC3C2)ncc1F)N1CC[C@H](N2CCc3ccccc3C2)[C@@H](O)C1` (single isomer, unassigned) [Example 116], the EC50 in assay [1] (setting [4]) worked out at 3.9 nM; at PRMT5 it was 6.6 nM.
In the case of `O=C(c1cc(NC2CCN3C(=O)CCC3C2)ncc1F)N1CC[C@H](N2CCc3ccccc3C2)[C@@H](O)C1` (single isomer, unassigned) [Example 117], the figures for the EC50 (in assay [1] (setting [4]); on PRMT5) were 1.8 nM and 3.3 nM, respectively.
With `O=C(c1cc(NC2CCN3C(=O)CCC3C2)ncc1F)N1CC[C@H](N2CCc3ccccc3C2)[C@@H](O)C1` (single isomer, unassigned) [Example 118], the EC50 in assay [1] (setting [2]) came to 2.9 nM; in assay [1] (setting [3]), 10600 nM; at PRMT5 it was 55 nM.
Turning to `CC(=O)N1CC2CC1CC2Nc1cc(C(=O)N2CC[C@H](N3CCc4ccccc4C3)[C@@H](O)C2)c(F)cn1` (single isomer, unassigned) [Example 119], the EC50 in assay [1] (setting [4]) was determined as 3.5 nM; on PRMT5, 15 nM.
On to `CC(=O)N1CC2CC1CC2Nc1cc(C(=O)N2CC[C@H](N3CCc4ccccc4C3)[C@@H](O)C2)c(F)cn1` (single isomer, unassigned) [Example 120], for which the figures for the EC50 (in assay [1] (setting [2]); in assay [1] (setting [3]); on PRMT5) were 20 nM, 5490 nM and 316 nM, respectively.
With `CC1(C)CC1(C#N)c1cnc2nc(C(=O)N3CC[C@H](N4CCc5ccccc5C4)[C@@H](O)C3)cn2c1` (single isomer, unassigned) [Example 127], the figures for the EC50 (in assay [1] (setting [4]); at PRMT5) were 0.4 nM and 12 nM, respectively.
Regarding `CC1(C)CC1(C#N)c1cnc2nc(C(=O)N3CC[C@H](N4CCc5ccccc5C4)[C@@H](O)C3)cn2c1` (single isomer, unassigned) [Example 128], the EC50 in assay [1] (setting [4]) was determined as 0.3 nM; on PRMT5, 1.1 nM.
For the compound `CC1CC1c1cnc2nc(C(=O)N3CCC(N4CCc5ccccc5C4)[C@@H](O)C3)cn2c1` (single isomer, unassigned) [Example 129], the EC50 in assay [1] (setting [4]) was determined as 1.4 nM; at PRMT5 it was 6.4 nM.
For `CC1CC1c1cnc2nc(C(=O)N3CCC(N4CCc5ccccc5C4)[C@@H](O)C3)cn2c1` (single isomer, unassigned) [Example 130], the EC50 stood at 0.7 nM in assay [1] (setting [4]) and 3.8 nM at PRMT5.
Taken in the same sequence, the figures for `CC1CC1c1cnc2nc(C(=O)N3CCC(N4CCc5ccccc5C4)[C@@H](O)C3)cn2c1` (single isomer, unassigned) [Example 131] were 0.5 nM and 4.6 nM.
Take `CC(=O)N1CCC(Nc2nccc(C(=O)N3CC[C@H](N4CCc5ccccc5C4)[C@@H](O)C3)c2F)CC1` [Example 18, 1-(4-((4-((3S,4S)-4-(3,4-dihydroisoquinolin-2(1H)-yl)-3-hydroxypiperidine-l-carbonyl)-3-fluoropyridin-2-yl)amino)piperidin-1-yl)ethan-1-one]: the EC50 in assay [1] (setting [2]) is ~3 nM; in assay [1] (setting [3]) it was 6760 nM; on PRMT5, 54 nM.
With `CC(=O)N1CCC(Nc2nccc(C(=O)N3CC[C@@H](N4CCc5ccccc5C4)[C@H](O)C3)c2F)CC1` [Example 19, 1-(4-((4-((3R,4R)-4-(3,4-dihydroisoquinolin-2(1H)-yl)-3-hydroxypiperidine-1-carbonyl)-3-fluoropyridin-2-yl)amino)piperidin-1-yl)ethan-1-one], the EC50 in assay [1] (setting [4]) is 507 nM; on PRMT5 it was 9800 nM.
Turning to `CCOc1nc(Br)cn2cc(C(=O)N3CC[C@H](N4CCc5ccccc5C4)[C@@H](O)C3)nc12` [Example 51, (6-bromo-8-ethoxyimidazo[1,2-a]pyrazin-2-yl)((3S,4S)-4-(3,4-dihydroisoquinolin-2(1H)-yl)-3-hydroxypiperidin-1-yl)methanone], the values for the EC50 (in assay [1] (setting [2]); in assay [1] (setting [3]); on PRMT5) were 0.4 nM, 120 nM and 6.3 nM, respectively.
With `O=C(c1ccnc(C(F)F)c1)N1CC[C@H](N2CCc3ccccc3C2)[C@@H](O)C1` [Example 52, (2-(difluoromethyl)pyridin-4-yl)((3S,4S)-4-(3,4-dihydroisoquinolin-2(1H)-yl)-3-hydroxypiperidin-1-yl)methanone], the EC50 in assay [1] (setting [4]) is 580 nM; on PRMT5, > 10000 nM.
`O=C(c1ccnc(OC(F)F)c1)N1CC[C@H](N2CCc3ccccc3C2)[C@@H](O)C1` [Example 53, (2-(difluoromethoxy)pyridin-4-yl)((3S,4S)-4-(3,4-dihydroisoquinolin-2(1H)-yl)-3-hydroxypiperidin-1-yl)methanone]: the EC50 is ~28 nM in assay [1] (setting [2]), > 10000 nM in assay [1] (setting [3]) and > 10000 nM on PRMT5.
In the case of `Cc1nc(C)c(-c2cnc3nc(C(=O)N4CC[C@H](N5CCc6ccccc6C5)[C@@H](O)C4)cn3c2)s1` [Example 56, [(3S,4S)-4-(3,4-dihydroisoquinolin-2(1H)-yl)-3-hydroxypiperidin-1-yl][6-(2,4-dimethyl-1,3-thiazol-5-yl)imidazo[1,2-a]pyrimidin-2-yl]methanone], the values for the EC50 (in assay [1] (setting [4]); on PRMT5) were 0.4 nM and 1.8 nM, respectively.
Consider `Cn1nccc1-c1cnc2nc(C(=O)N3CC[C@H](N4CCc5ccccc5C4)[C@@H](O)C3)cn2c1` [Example 57, [(3S,4S)-4-(3,4-dihydroisoquinolin-2(1H)-yl)-3-hydroxypiperidin-1-yl][6-(1-methyl-1H-pyrazol-5-yl)imidazo[1,2-a]pyrimidin-2-yl]methanone], for which the results for the EC50 (in assay [1] (setting [4]); on PRMT5) were 1.1 nM and 8.7 nM, respectively.
Turning to `CO[C@H](C)c1cc(C(C)C)cn2cc(C(=O)N3CC[C@H](N4CCc5ccccc5C4)[C@@H](O)C3)nc12` [Example 58, [(3S,4S)-4-(3,4-dihydroisoquinolin-2(1H)-yl)-3-hydroxypiperidin-1-yl]{8-[(1R)-1-methoxyethyl]-6-(propan-2-yl)imidazo[1,2-a]pyridin-2-yl}methanone], the EC50 was 0.3 nM in assay [1] (setting [4]) and 0.6 nM on PRMT5.
For the compound `CO[C@H](C)c1cc(C)cn2cc(C(=O)N3CC[C@H](N4CCc5ccccc5C4)[C@@H](O)C3)nc12` [Example 59, [(3S,4S)-4-(3,4-dihydroisoquinolin-2(1H)-yl)-3-hydroxypiperidin-1-yl]{8-[(1R)-1-methoxyethyl]-6-methylimidazo[1,2-a]pyridin-2-yl}methanone], the EC50 in assay [1] (setting [4]) was determined as 0.5 nM; on PRMT5, 4.4 nM.
As to `CC(C)N1CCNc2cc(C(=O)N3CC[C@H](N4CCc5ccccc5C4)[C@@H](O)C3)ccc2C1=O` [Example 62, 8-((3S,4S)-4-(3,4-dihydroisoquinolin-2(1H)-yl)-3-hydroxypiperidine-1-carbonyl)-4-isopropyl-1,2,3,4-tetrahydro-5H-benzo[e][1,4]diazepin-5-one], the EC50 amounted to 3.6 nM in assay [1] (setting [4]) and 21 nM on PRMT5.
